Among the data in BindingDB's records for patent US11839613 (Idorsia Pharmaceuticals, 2023) are IC50 values, retold here.

The target of assay [1] is Prostaglandin E2 receptor EP4 subtype (Homo sapiens, UniProt P35408). In words: hEP4 cAMP Assay.
Procedure: Cells are counted washed and resuspended in assay buffer (AB; HBSS, 20 mM HEPES, 0.2% BSA; 2 mM IBMX). […] Plate is pre-incubated 45 minutes at RT. Subsequently, 2.5 microliters of PGE2 (final conc. 6 nM) are transferred into the assay plate. Plate is incubated 30 minutes at RT. […] For each compound concentration the percentage of cAMP compared to DMSO control value as average ±STDEV (each concentration is measured in duplicate) is calculated.
Assay [2] concerns the target Prostaglandin E2 receptor EP2 subtype (Homo sapiens, UniProt P43116). In words: hEP2 cAMP Assay. The method, then:
Cells are counted washed and resuspended in assay buffer (AB; HBSS, 20 mM HEPES, 0.2% BSA; 2 mM IBMX). […] Plate is pre-incubated 45 minutes at RT. […] Plate is incubated 30 minutes at RT.

In general, IC50 refers to the midpoint of a concentration-inhibition curve.

Prostaglandin E2 receptor EP4 subtype, sequence (P35408 whole entry): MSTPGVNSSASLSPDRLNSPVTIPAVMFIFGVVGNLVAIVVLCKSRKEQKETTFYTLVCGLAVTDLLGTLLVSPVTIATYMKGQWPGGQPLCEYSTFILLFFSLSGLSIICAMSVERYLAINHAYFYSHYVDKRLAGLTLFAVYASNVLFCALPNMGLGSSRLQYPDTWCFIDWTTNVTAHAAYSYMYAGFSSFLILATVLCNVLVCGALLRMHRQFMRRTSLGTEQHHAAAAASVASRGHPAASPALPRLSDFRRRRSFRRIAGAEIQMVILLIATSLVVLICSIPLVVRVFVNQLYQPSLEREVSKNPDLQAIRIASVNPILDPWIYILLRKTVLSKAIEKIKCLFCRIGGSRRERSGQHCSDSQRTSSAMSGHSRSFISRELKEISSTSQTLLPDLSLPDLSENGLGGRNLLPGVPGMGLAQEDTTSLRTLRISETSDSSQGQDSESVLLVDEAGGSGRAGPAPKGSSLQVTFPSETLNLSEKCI
Prostaglandin E2 receptor EP2 subtype, sequence (P43116 whole entry): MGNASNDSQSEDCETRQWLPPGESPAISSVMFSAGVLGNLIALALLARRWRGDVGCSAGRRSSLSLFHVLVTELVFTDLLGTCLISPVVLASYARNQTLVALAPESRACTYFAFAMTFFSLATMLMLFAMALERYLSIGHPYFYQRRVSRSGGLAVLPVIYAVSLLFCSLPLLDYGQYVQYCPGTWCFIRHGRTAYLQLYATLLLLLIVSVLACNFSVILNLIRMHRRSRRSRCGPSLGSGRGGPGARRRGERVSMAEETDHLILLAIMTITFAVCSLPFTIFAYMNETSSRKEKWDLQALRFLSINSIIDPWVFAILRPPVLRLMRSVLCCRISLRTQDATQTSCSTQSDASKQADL

For the molecule `CCOc1cc(-c2cc(NCCc3c(OC)cc4c(c3F)OCCO4)ncn2)ccc1C(=O)O` [US11839613, Example 435], the IC50 in assay [1] was found to be 80 nM; in assay [2] it was 28 nM.
For `CSc1cc(-c2cc(NCCc3ccc4scc(Cl)c4c3)ncn2)ccc1C(=O)O` [US11839613, Example 429], in that order: 38 nM and 66 nM.
For `CCCc1cc(-c2cc(NCCc3cc4c(cc3OC)OCCO4)ncn2)ccc1C(C)C(=O)O` (racemic) [US11839613, Example 401], in that order: 236 nM and 739 nM.
As to `COc1cc2c(c(F)c1CCNc1cc(-c3ccc(CC(=O)O)c(OC(F)F)c3)ncn1)OCCO2` [US11839613, Example 442], the IC50 in assay [2] is 224 nM.
`CC(C)Oc1cc(-c2cc(NCCc3ccc4sccc4c3F)ncn2)ccc1CC(=O)O` [US11839613, Example 424]: the half-maximal inhibitory concentration (IC50) was 89 nM in assay [1] and 782 nM in assay [2].
For `COc1cc(-c2cc(NCCc3ccc4sccc4c3F)ncn2)ccc1CC(=O)O` [US11839613, Example 382], in that order: 222 nM and 675 nM.
For `COc1cc2sccc2cc1CCNc1cc(-c2ccc(CC(=O)O)c(OC)c2)ncn1` [US11839613, Example 381], in that order: 119 nM and 165 nM.
The matching figures for `CSc1cc(-c2cc(NCCc3cc(F)c4sccc4c3)ncn2)ccc1C(=O)O` [US11839613, Example 364]: 18 nM and 37 nM.
Consider `CCOc1cc(-c2cc(NCCc3ccc4sccc4c3F)ncn2)ccc1CC(=O)O` [US11839613, Example 368], for which the results for the IC50 in assay [1] and in assay [2] were 37 nM and 119 nM, respectively.
The matching figures for `CC(C)Cc1cc(-c2cc(NCCc3ccc4sccc4c3F)ncn2)ccc1CC(=O)O` [US11839613, Example 409]: 87 nM and 486 nM.
The matching figures for `CCOc1cc(-c2cc(NCCc3cc(F)c4sccc4c3)ncn2)ccc1OCCC(=O)O` [US11839613, Example 422]: 18 nM and 492 nM.
For `CCCc1cc(-c2cc(NCCc3cc4ccsc4cc3OC)ncn2)ccc1C(=O)O` [US11839613, Example 377], in that order: 92 nM and 27 nM.
As to `CCCOc1cc(-c2cc(NCCc3ccc4sccc4c3F)ncn2)ccc1CC(=O)O` [US11839613, Example 393], the IC50 came to 81 nM in assay [1] and 439 nM in assay [2].
For `COc1c(CCNc2cc(-c3ccc(CC(=O)O)c(CC(C)C)c3)ncn2)cc2ccsc2c1F` [US11839613, Example 410], in that order: 170 nM and 665 nM.
The matching figures for `C#Cc1cc2c(cc1CCNc1cc(-c3ccc(CC(=O)O)c(CCC)c3)ncn1)OCCO2` [US11839613, Example 440]: 65 nM and 25 nM.
For `CCc1cc(-c2cc(NCCc3c(OC)cc4c(c3C)OCCO4)ncn2)ccc1CC(=O)O` [US11839613, Example 444], the IC50 in assay [1] came out at 80 nM; in assay [2], 22 nM.
With `CCOc1cc(-c2cc(NCCc3cc(F)c4sccc4c3)ncn2)sc1C(=O)O` [US11839613, Example 362], in assay [1], inhibition was half-maximal at 1 nM (IC50).
Regarding `CCOc1cc(-c2cc(NCCc3c(OC)cc4ccccc4c3C)ncn2)ccc1OCCC(=O)O` [US11839613, Example 423], the IC50 is 6 nM in assay [1] and 230 nM in assay [2].
Take `O=C(O)c1ccc(-c2cc(NCCc3ccc4sccc4c3F)ncn2)cc1OC1CCC1` [US11839613, Example 366]: the IC50 in assay [1] amounted to 47 nM; in assay [2], 30 nM.
The matching figures for `CC(C)Cc1cc(-c2cc(NCCc3ccc4sccc4c3F)ncn2)ccc1C(=O)O` [US11839613, Example 413]: 38 nM and 119 nM.
The matching figures for `CCOc1cc(-c2cc(NCCc3c(OC)cc4ccccc4c3F)ncn2)ccc1C(=O)O` [US11839613, Example 101]: 35 nM and 102 nM.
For `CCCc1cc(-c2cc(NCCc3cc(F)c4sccc4c3)ncn2)ccc1C(=O)O` [US11839613, Example 389], in that order: 57 nM and 231 nM.
On to `CCOc1cc(-c2cc(NCCc3ccc4sccc4c3F)ncn2)sc1C(=O)O` [US11839613, Example 367], for which the results for the IC50 in assay [1] and in assay [2] were 1 nM and 6 nM, respectively.
The matching figures for `COc1cc(-c2cc(NCCc3cc(F)c4sccc4c3)ncn2)ccc1OCCC(=O)O` [US11839613, Example 438]: 29 nM and 708 nM.
The matching figures for `COc1cc2ccccc2c(C)c1CCNc1cc(-c2ccc(CC(=O)O)c(OC(F)F)c2)ncn1` [US11839613, Example 443]: 43 nM and 549 nM.
For the molecule `CCc1cc(-c2cc(NCCc3c(OC)cc4ccccc4c3C)ncn2)ccc1C(=O)O` [US11839613, Example 446], the results for the IC50 in assay [1] and in assay [2] were 98 nM and 160 nM, respectively.
The matching figures for `O=C(O)c1ccc(-c2cc(NCCc3cc(F)c4sccc4c3)ncn2)cc1OC1CC1` [US11839613, Example 449]: 21 nM and 131 nM.
`COc1cc(-c2cc(NCCc3c(OC)cc4c(c3C)OCCO4)ncn2)ccc1CC(=O)O` [US11839613, Example 434]: in assay [1], the midpoint of inhibition, the IC50, lay at 95 nM. This counts as double-digit nanomolar.
`O=C(O)c1ccc(-c2cc(NCCc3ccc4scc(Cl)c4c3)ncn2)cc1OC1CCC1` [US11839613, Example 430]: the IC50 in assay [1] is 40 nM; in assay [2], 185 nM.
Regarding `COc1cc2c(c(C)c1CCNc1cc(-c3ccc(CC(=O)O)c(OC(F)(F)F)c3)ncn1)OCCO2` [US11839613, Example 428], half-maximal inhibition in assay [1] (IC50) was put at 50 nM. This counts as double-digit nanomolar.
In the case of `COc1cc2c(c(C)c1CCNc1cc(-c3ccc(CC(=O)O)c(OC(C)C)c3)ncn1)OCCO2` [US11839613, Example 426], the half-maximal inhibitory concentration (IC50) in assay [2] turned out to be 22 nM.
In assay [1], `COc1cc(-c2cc(NCCc3cc(F)c4sccc4c3)ncn2)ccc1CC(=O)O` [US11839613, Example 475] came in with an IC50 of 114 nM.
`CCOc1cc(-c2cc(NCCc3cc4c(cc3OC)OCCO4)ncn2)cc(F)c1CC(=O)O` [US11839613, Example 373] returned an IC50 in assay [2] of 286 nM.
On the same count and under the same terms, as for `CCCc1cc(-c2cc(NCCc3cc4c(cc3OC)OCCO4)ncn2)ccc1CC(=O)O` [US11839613, Example 387], the figure is 205 nM.
In assay [1], `CCOc1cc2c(cc1CCNc1cc(-c3ccc(CC(=O)O)c(OC(F)(F)F)c3)ncn1)OCCO2` [US11839613, Example 427] gave an IC50 of 190 nM.
With `CCOc1cc2c(cc1CCNc1cc(-c3ccc(C(=O)O)c(OC4CC4)c3)ncn1)OCCO2` [US11839613, Example 447], the IC50 in assay [2] was determined as 16 nM. That is a double-digit nanomolar value.
Molecule `COc1cc2c(cc1CCNc1cc(-c3ccc(CC(=O)O)c(CC(C)C)c3)ncn1)OCCO2` [US11839613, Example 411] showed an IC50 in assay [2] of 325 nM.
The same measure, in the same setting: as for `CCCc1cc(-c2cc(NCCc3c(OC)cc4c(c3C)OCCO4)ncn2)ccc1CC(=O)O` [US11839613, Example 397], the figure is 25 nM.
The molecule `CCCc1cc(-c2cc(NCCc3ccc4sccc4c3F)ncn2)ccc1C(C)C(=O)O` (racemic) [US11839613, Example 482] yielded an IC50 in assay [1] of 323 nM. That is a sub-micromolar value.
Consider `COc1cc2c(c(C)c1CCNc1cc(-c3ccc(C(=O)O)c(SC)c3)ncn1)OCCO2` [US11839613, Example 400], for which the concentration for half-maximal inhibition (IC50) in assay [1] came out at 37 nM.
`CCOc1cc(-c2cc(NCCc3ccc4sccc4c3C)ncn2)cc(F)c1CC(=O)O` [US11839613, Example 372] came in with an IC50 in assay [2] of 111 nM.
